Patent US8513433B2, “Small molecule inhibitors of PARP activity” (Angion Biomedica Corp., priority 2009, dated 2013)

Columns and labels:
human PARP-1 = molecular target: T1, human PARP-1 (Homo sapiens, UniProt P09874); assay: Poly (ADP-Ribose) Polymerase-1 (PARP-1) in vitro enzyme assay (Universal Colorimetric PARP Assay Kit); type: biochemical; conditions: letter codes; read-out: extent of inhibition of PARP activity (IC50, micromolar)
T1 construct: purchased Trevigen Inc., Gaithersburg, Md
From the text: Poly (ADP-Ribose) Polymerase-1 (PARP-1) In Vitro Enzyme Assay: Compounds can be screened for inhibitory activity against human PARP-1 in vitro using the Universal Colorimetric PARP Assay Kit (Trevigen Inc., Gaithersburg, Md.) as directed by the supplier. Compounds can be assayed in duplicate in 0.5% DMSO final concentration, negative control is no enzyme, while positive control is DMSO vehicle alone. IC50 determinations can be made using Microsoft Excel. For all cell assays, compounds can be added to cells in 5% DMSO/PBS for a final concentration of 0.5% DMSO.

Mice = conditions: eleven minutes aortic ischemia, 48 hours reperfusion, cited from earlier work
rat = conditions: 45 minutes ischemia, up to six hours reperfusion; drug one minute before reperfusion; cited from earlier work
PARP-1 = conditions: agent alone; cited from earlier work
mouse = mouse arthritis; inflammatory cell infiltration, hyperplasia of the synovium, tissue necrosis; cited from earlier work
[1] = test system: vascular smooth muscle cells in tumors; conditions: cited from earlier work
rats = conditions: hemorrhagic shock and resuscitation; cited from earlier work

T1 sequence (P09874 whole entry): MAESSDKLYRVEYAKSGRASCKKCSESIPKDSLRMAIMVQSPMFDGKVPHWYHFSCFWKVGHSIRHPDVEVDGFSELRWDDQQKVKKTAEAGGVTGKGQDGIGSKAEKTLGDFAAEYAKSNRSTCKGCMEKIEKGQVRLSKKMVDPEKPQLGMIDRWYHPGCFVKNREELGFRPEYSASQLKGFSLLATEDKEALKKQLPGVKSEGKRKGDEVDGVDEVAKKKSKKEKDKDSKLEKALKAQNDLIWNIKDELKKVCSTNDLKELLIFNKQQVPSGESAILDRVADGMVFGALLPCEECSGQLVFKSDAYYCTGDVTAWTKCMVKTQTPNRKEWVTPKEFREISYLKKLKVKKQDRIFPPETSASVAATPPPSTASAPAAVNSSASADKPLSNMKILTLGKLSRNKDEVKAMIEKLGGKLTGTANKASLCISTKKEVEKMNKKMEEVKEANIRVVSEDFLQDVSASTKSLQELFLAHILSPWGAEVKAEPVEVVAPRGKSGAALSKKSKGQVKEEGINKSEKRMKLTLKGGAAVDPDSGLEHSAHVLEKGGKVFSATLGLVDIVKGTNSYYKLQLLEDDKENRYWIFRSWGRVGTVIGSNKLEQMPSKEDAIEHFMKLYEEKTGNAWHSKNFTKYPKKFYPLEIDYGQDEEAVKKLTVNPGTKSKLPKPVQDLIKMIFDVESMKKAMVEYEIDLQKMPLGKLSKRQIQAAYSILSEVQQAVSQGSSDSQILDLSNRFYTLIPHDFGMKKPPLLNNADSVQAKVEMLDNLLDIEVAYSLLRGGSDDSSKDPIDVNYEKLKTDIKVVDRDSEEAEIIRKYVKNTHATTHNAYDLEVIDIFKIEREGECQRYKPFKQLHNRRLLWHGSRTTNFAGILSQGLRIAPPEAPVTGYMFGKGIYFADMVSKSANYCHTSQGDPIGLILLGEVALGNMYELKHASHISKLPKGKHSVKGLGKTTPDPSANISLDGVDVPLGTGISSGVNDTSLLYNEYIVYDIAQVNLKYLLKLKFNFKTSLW

| IC50 (human PARP-1) [µM] | Compound | other results |
| --- | --- | --- |
| > 2 | NC(=O)c1cccc2[nH]c(C3c4ccccc4CCN3C(=O)OCc3ccccc3)nc12 (stereo not shown) [Benzyl 1-(4-carbamoyl-1H-benzo[d]imidazol-2-yl)-3,4-dihydroisoquinoline-2(1H)-carboxylate] |  |
| < 0.5 | NC(=O)c1cccc2[nH]c(C3Cc4ccccc4CN3)nc12 (stereo not shown) [2-(1,2,3,4-Tetrahydroisoquinolin-3-yl)-1H-benzo[d]imidazole-4-carboxamide] |  |
|  | CN(C)CC(=O)Nc1ccc2[nH]c(=O)c3ccccc3c2c1 [PJ34] | fibrinolysis stimulated by the ischemia-reperfusion (Mice): no apparent affect; steady state levels of a marker for neutrophil infiltration (Mice): decrease steady state levels; renal mitochondrial activity (Mice; treated 1 hour before and immediately after ischemia): preserve renal mitochondrial activity |
|  | NC(=O)c1cccc(N)c1 [3-aminobenzamide] | kidney function (plasma urea, plasma creatinine, glomerular filtration rate) (rat): improved kidney function |
| < 0.5 | NC(=O)c1cccc2[nH]c(C3CCc4ccccc4N3)nc12 (stereo not shown) [2-(1,2,3,4-Tetrahydroquinolin-2-yl)-1H-benzo[d]imidazole-4-carboxamide] |  |
|  | COc1cc([C@@H]2c3cc4c(cc3[C@@H](O[C@@H]3O[C@@H]5CO[C@@H](C)O[C@H]5[C@H](O)[C@H]3O)[C@H]3COC(=O)[C@H]23)OCO4)cc(OC)c1O [etoposide] | activation of PARP-1 (PARP-1): failed to induce PARP-1 |
| > 2 | NC(=O)c1cccc2[nH]c(C3c4ccccc4CN3C(=O)OCc3ccccc3)nc12 (stereo not shown) [Benzyl 1-(4-carbamoyl-1H-benzo[d]imidazol-2-yl)isoindoline-2-carboxylate] |  |
|  | Nc1ccc2oc(=O)ccc2c1I [5-iodo-6-amino-1,2-benzopyrone] | severity of the disease as assessed by histological parameters (mouse): reduced the severity of the disease |
|  | Oc1cccc2c(O)nccc12 [1,5-dihroxyisoquinoline] | kidney function (plasma urea, plasma creatinine, glomerular filtration rate) (rat): improved kidney function |
| > 2 | CC1(c2nc3c(C(N)=O)cccc3[nH]2)Cc2ccccc2CN1C(=O)OCc1ccccc1 (stereo not shown) [Benzyl 3-(4-carbamoyl-1H-benzo[d]imidazol-2-yl)-3-methyl-3,4-dihydroisoquinoline-2(1H)-carboxylate] |  |
|  | NC(=O)c1cccnc1 [nicotinamide] | contraction of vascular smooth muscle cells in tumors [1]: inhibit contraction |
|  | CC[C@@]1(O)C(=O)OCc2c1cc1n(c2=O)Cc2cc3ccccc3nc2-1 [camptothecin] | activation of PARP-1 (PARP-1): four-fold activation |
|  | Nc1cccc2cnccc12 [5-aminoisoquinoline] | leukocyte-endothelial interaction (rats): decreased leukocyte-endothelial interaction; liver function (rats): improved liver function; liver injury (rats): decreased liver injury |
| < 0.5 | NC(=O)c1cccc2[nH]c(C3NCc4ccccc43)nc12 (stereo not shown) [2-(Isoindolin-1-yl)-1H-benzo[d]imidazole-4-carboxamide] |  |
| < 0.5 | NC(=O)c1cccc2[nH]c(C3NCCc4ccccc43)nc12 (stereo not shown) [2-(1,2,3,4-Tetrahydroisoquinolin-1-yl)-1H-benzo[d]imidazole-4-carboxamide] |  |
| > 2 | CC(C)(C)OC(=O)N1c2ccccc2CCC1c1nc2c(C(N)=O)cccc2[nH]1 (stereo not shown) [tert-Butyl 2-(4-carbamoyl-1H-benzo[d]imidazol-2-yl)-3,4-dihydroquinoline-1(2H)-carboxylate] |  |
| < 0.5 | CC1(c2nc3c(C(N)=O)cccc3[nH]2)Cc2ccccc2CN1 (stereo not shown) [2-(3-Methyl-1,2,3,4-tetrahydroisoquinolin-3-yl)-1H-benzo[d]imidazole-4-carboxamide] |  |
| > 2 | CC(C)(C)OC(=O)N1Cc2cc(N)ccc2CC1c1nc2c(C(N)=O)cccc2[nH]1 (stereo not shown) [tert-Butyl 7-amino-3-(4-carbamoyl-1H-benzo[d]imidazol-2-yl)-3,4-dihydroisoquinoline-2(1H)-carboxylate] |  |
| 0.5 to 2 | NC(=O)c1cccc2[nH]c(C3Cc4ccccc4CN3C(=O)OCc3ccccc3)nc12 (stereo not shown) [Benzyl 3-(4-carbamoyl-1H-benzo[d]imidazol-2-yl)-3,4-dihydroisoquinoline-2-(1H)-carboxylate] |  |
| > 2 | NC(=O)c1cccc2[nH]c(C3Cc4ccccc4N3C(=O)OCc3ccccc3)nc12 (stereo not shown) [Benzyl 2-(4-carbamoyl-1H-benzo[d]imidazol-2-yl)indoline-1-carboxylate] |  |
| > 2 | CC(C)(C)OC(=O)Nc1ccc2c(c1)CNC(c1nc3c(C(N)=O)cccc3[nH]1)C2 (stereo not shown) [tert-Butyl (3-(4-carbamoyl-1H-benzo[d]imidazol-2-yl)-1,2,3,4-tetrahydroisoquinolin-7-yl)carbamates] |  |
| < 0.5 | NC(=O)c1cccc2[nH]c(C3Cc4ccc(N)cc4CN3)nc12 (stereo not shown) [2-(7-Amino-1,2,3,4-tetrahydroisoquinolin-3-yl)-1H-benzo[d]imidazole-4-carboxamide] |  |
| < 0.5 | NC(=O)c1cccc2[nH]c(C3Cc4ccccc4N3)nc12 (stereo not shown) [2-(Indolin-2yl)-1H-benzo[d]imidazole-4-carboxamide] |  |

| Compound | IC50 (human PARP-1) [µM] | other results |
| --- | --- | --- |
| CC(C)(C)OC(=O)Nc1ccc2c(c1)CN(C(=O)OC(C)(C)C)C(c1nc3c(C(N)=O)cccc3[nH]1)C2 (stereo not shown) [tert-Butyl 7-((tert-butoxycarbonyl)amino)-3-(4-carbamoyl-1H-benzo[d]imidazol-2-yl)-3,4-dihydroisoquinoline-2(1H)-carboxylate] | > 2 |  |
